Our source for the inhibition, Activity and GI50 values is ChEMBL document CHEMBL4715749, “Synthesis of 17β-N-arylcarbamoylandrost-4-en-3-one derivatives and their anti-proliferative effect on human androgen-sensitive LNCaP cell line” (Eur J Med Chem, 2016).

The subject of series [1] is LNCaP. Nature of the series: Antiproliferative activity against androgen-sensitive human LNCAP cells assessed as inhibition of cell growth at 50 uM incubated for 48 hrs by sulforhodamine B assay relative to control. The series is classed as functional. For orientation: The SRB assay estimates cell density from bound dye.
In series [2] the test system is LNCaP. Nature of the series: Antiproliferative activity against androgen-sensitive human LNCAP cells assessed as inhibition of testosterone-induced cell growth at 50 uM incubated for 48 hrs by sulforhodamine B assay relative to control. The series is classed as functional.
Series [3] deals with LNCaP. Nature of the series: Antiproliferative activity against androgen-sensitive human LNCAP cells assessed as inhibition of DHT-induced cell growth at 50 uM incubated for 48 hrs by sulforhodamine B assay relative to control. The series is classed as functional.
Series [4] is described as follows: Cytotoxicity against Wistar rat PBMC assessed as inhibition of cell growth at 50 uM incubated for 24 hrs by sulforhodamine B assay relative to control. Format: tissue-based. As to conditions: for inhibition at 24 h, 50 µM: Wistar, peripheral blood mononuclear cells (PBMC); for Activity: pbmc, 24 h, 50 µM.
Series [5] has as its system LNCaP. Nature of the series: Growth inhibition of androgen-sensitive human LNCAP cells incubated for 48 hrs by sulforhodamine B assay. Format: functional.
The subject of another series is PC-3. Kind of series: Growth inhibition of androgen-insensitive human PC3 cells incubated for 48 hrs by sulforhodamine B assay. The series is classed as functional.

Molecules are shown by their SMILES. The source made the active and inactive calls. The calls are words filed in the database; no cut-off is given here.

A word on the inhibition: it is the change of the read-out against control, counted positive when it falls. Take `CC(C)(C)NC(=O)[C@H]1CC[C@H]2[C@@H]3CC[C@H]4NC(=O)C=C[C@]4(C)[C@H]3CC[C@]12C` [FINASTERIDE]: the inhibition at 50 µM with LNCaP [1] was 34.6%; in the series with LNCaP [2], 21.1%. For the same compound, in the series on LNCaP [3], the inhibition result was “inactive”. In addition, the inhibition at 24 h, 50 µM in series [4] amounted to 3.7%.

As to `Cc1ccc(NC(=O)[C@H]2CC[C@H]3[C@@H]4CCC5=CC(=O)CC[C@]5(C)[C@H]4CC[C@]23C)cc1`, the inhibition at 50 µM was 25.6% in the series with LNCaP [1], 43.3% in the series on LNCaP [2] and 27.5% with LNCaP [3]. Also, the inhibition at 24 h, 50 µM in series [4] is 13%.

Take `C[C@]12CC[C@H]3[C@@H](CCC4=CC(=O)CC[C@@]43C)[C@@H]1CC[C@@H]2C(=O)N1CCc2ccccc21`: the inhibition at 50 µM in the series with LNCaP [1] was 69.1%; in the series on LNCaP [2], 49.9%; in the series on LNCaP [3], 52.6%. Further, the Activity entry in series [4] is on record as “Non-Toxic”.

Usually GI50 stands for the concentration that inhibits growth by half. High values mean less potent growth inhibition, low ones more potent growth inhibition. As to `C[C@]12CC[C@H]3[C@@H](CCC4=CC(=O)CC[C@@]43C)[C@@H]1CC[C@@H]2C(=O)Nc1cc(C(F)(F)F)cc(C(F)(F)F)c1`, the inhibition at 50 µM in the series on LNCaP [1], in the series on LNCaP [2] and with LNCaP [3] was 100% throughout. In series [4], the inhibition at 24 h, 50 µM was 9.1%. The GI50 was determined as 12.8 µM in the series on LNCaP [5] and 14.2 µM in the series with PC-3.

On to `C[C@]12CC[C@H]3[C@@H](CCC4=CC(=O)CC[C@@]43C)[C@@H]1CC[C@@H]2C(=O)Nc1ccccc1`, for which the inhibition at 50 µM is 40.9% with LNCaP [1], 66.2% in the series with LNCaP [2] and 59.4% with LNCaP [3]. Further, the inhibition at 24 h, 50 µM in series [4] was found to be 8.7%.

On to `COc1ccc(NC(=O)[C@H]2CC[C@H]3[C@@H]4CCC5=CC(=O)CC[C@]5(C)[C@H]4CC[C@]23C)cc1`, for which the inhibition at 50 µM with LNCaP [1] was 48.7%; in the series on LNCaP [2], 38.6%; in the series with LNCaP [3], 29.7%. In series [4], the inhibition at 24 h, 50 µM came to 7.9%.

As for `CC(C)C(=O)Nc1ccc([N+](=O)[O-])c(C(F)(F)F)c1` [FLUTAMIDE], the inhibition at 50 µM was -3.4% in the series with LNCaP [1], 29.6% in the series with LNCaP [2] and 25.1% in the series with LNCaP [3]. In series [4], the Activity result is “Non-Toxic”.

In the case of `CC(=O)N1CCN(c2ccc(OCC3COC(Cn4ccnc4)(c4ccc(Cl)cc4Cl)O3)cc2)CC1` (centres undefined) [KETOCONAZOLE], the inhibition at 50 µM with LNCaP [1] was determined as 82.7%; in the series with LNCaP [2], 76%; with LNCaP [3] it was 68.2%. Besides, the concentration for 50% growth inhibition (GI50) in the series on LNCaP [5] came to 25 µM; in the series with PC-3 it was 11.7 µM.

Regarding `C[C@]12CC[C@H]3[C@@H](CCC4=CC(=O)CC[C@@]43C)[C@@H]1CC[C@@H]2C(=O)Nc1ccc(Cl)cc1`, the figures for the inhibition at 50 µM in the series with LNCaP [1], with LNCaP [2] and in the series with LNCaP [3] were -6.1%, 1.6% and 13.4%, respectively. Also, the Activity result in series [4] is “Non-Toxic”.

Take `C[C@]12CC[C@H]3[C@@H](CCC4=CC(=O)CC[C@@]43C)[C@@H]1CC[C@@H]2C(=O)Nc1nccs1`: the inhibition at 50 µM in the series with LNCaP [1], in the series with LNCaP [2] and in the series with LNCaP [3] was 100% each time. In series [4], the inhibition at 24 h, 50 µM was determined as 16.8%. Besides, the values for the GI50 with LNCaP [5] and with PC-3 were 16 µM and 6.6 µM, respectively.

Take `C[C@]12CC[C@H]3[C@@H](CCC4=CC(=O)CC[C@@]43C)[C@@H]1CC[C@@H]2C(=O)Nc1ccc(F)cc1`: the inhibition at 50 µM in the series on LNCaP [1] came out at 29.1%; in the series with LNCaP [2] it was 44.3%; with LNCaP [3], 29%. In addition, the inhibition at 24 h, 50 µM in series [4] stood at 4.1%.
